Test results from patent publication US11986482B2, “Method of promoting antitumor or anti-cancer immunity” (City University of Hong Kong, priority 2021, dated 2024).
“Also recorded” adds a separate entry of the source.

Experiments:
[1] = test system: Rab27a-knockout 4T1 cells; assay: 4T1-shRab27A (Rab27a-knockout) orthotopic tumors in Balb/c mice; format: in vivo, mouse
Protocol: Therefore, it is possible that the increased exosomal PD-L1 secretion induced by 6J1 may still suppress the tumor-infiltrating T cell cytotoxicity in vivo, even though 6J1 reduces the cell surface expression level of PD-L1 on the tumor cells. To evaluate the role of exosomal PD-L1 in the tumor microenvironment and tumor progression in mice, inventors knock out Rab27a in 4T1 cells to inhibit the secretion of exosomes. 4T1-shNC or 4T1-shRab27A cells are treated with or without 6J1 (1 μM). The supernatant is collected, and the concentration of extracellular vesicle is determined using a Nanosight nanoparticle analyzer. […] Inventors analyze the plasma membrane levels of PD-L1 in 4T1-shNC or 4T1-shRab27A cells treated with or without 6J1 (1 μM). […] Next, control or Rab27a-knockout 4T1 cells are orthotopically transplanted into syngeneic fat pads of female Balb/c. The mice are randomly divided (n=5 per group) and treated with either buffer or 6J1 (30 mg/kg, daily) via oral gavage. […] Inventors also perform the immunostaining of CD8 and Granzyme B in the tumor sections. […] Since enhanced antitumor immunity leads to increased apoptosis in tumors, inventors assess the levels of cleaved caspase3 (CCA3), one of the markers of apoptosis, in tumor sections as well.

Raw246.7 cells = assay: Chemokine level in supernatant of Raw246.7 cells; format: cell-based; details: in vitro, 1 μM
[2] = test system: HeLa, A549 and MDA-MB-231 cell lines; assay: Cytotoxicity, propidium iodide cell death ratio; format: cell-based; details: 24 h or 48 h
Protocol: The inventors also test the cytotoxicity of 6J1 in several cancer cell lines, HeLa, A549 and MDA-MB-231 cell lines. Cells are grown in 96-well plates in triplicate and treated with or without 6J1 at the concentrations of 0, 0.01, 0.1, 1, 10 and 100 μM indicated for 24 h or 48 h. They are then stained with propidium iodide (PI) or Hochest 33342 to measure the cell death ratio and cell number, respectively. […] Inventors also test the cytotoxicity of 6J1 in 4T1 cells. 4T1 cells are plated in 96-well plates in triplicate and treated with or without 6J1 at the concentrations of 0, 0.01, 0.1, 1, 5, 10, 20, 40, 80 and 100 μM indicated for 24 h or 48 h. The cell viability was then quantified via the MTT assay.

EGFR = EGFR degradation assay (EGF-488); format: cell-based; details: HeLa cells, 6J1 1 μM 3 h, EGF-488 2 μg/ml, 2 h of EGF treatment
Protocol: Furthermore, HeLa cells are pretreated with DMSO or 6J1 (1 μM) for 3 h. Then, cells are incubated with EGF-488 (2 μg/ml) on ice for 1 h followed by incubating in the complete medium at 37° C. in a CO2 incubator. Cells are fixed at the indicated times and imaged.

[3] = Oral bioavailability (stated, no method); details: in vivo
HeLa cells = assay: Extracellular vesicle concentration, Nanosight nanoparticle analyzer, HeLa cells; format: cell-based; details: 1 μM, 24 h
Protocol: It has previously been shown that interfering with endosomal trafficking promotes exosome secretion. Moreover, PD-L1 has been reported to be enriched in exosomes and secreted outside the cell. Thus, inventors speculate that 6J1 may induce the secretion of the PD-L1 trapped in the endosomal compartments via exosomes. To determine whether 6J1 may induce the secretion of PD-L1 via exosomes, HeLa cells are treated with or without 6J1 (1 μM) for 24 h. The supernatant is collected. Inventors purify the exosomes from the supernatant of HeLa cells by sequential centrifugation. The concentration of extracellular vesicle is determined using a Nanosight nanoparticle analyzer. And HeLa cells are treated with or without 6J1 (1 μM) for 48 h. The cell and supernatant are collected for Western Blot analysis. […] Moreover, the activity of Rab27a in HeLa cells treated with or without 6J1 (1 μM) is examined with a GST-SHD pulldown assay.
Moreover, ATG5- or LC3-knockout HeLa cells are treated with or without 6J1 (1 μM) for 24 h. The supernatant is collected, and the concentration of the extracellular vesicle is determined using a Nanosight nanoparticle analyzer. The exosomes are also collected and subjected to western blot analysis of the EVs marker and PD-L1 in FIG. 7a. The live cells are also labeled with an anti-PD-L1 antibody in FIG. 7b and subjected to flow cytometry analysis in FIG. 7c. […] In addition, inventors assess whether other autophagy-related genes, e.g., ATG4B, ATG7, Beclin1, and Vps34 are involved in 6J1-mediated exosomal PD-L1 secretion. ATG4B-, ATG7-, Beclin1-, or VPS34-knockout HeLa cells are treated with or without 6J1 (1 μM) for 24 h. The supernatant is collected, and the concentration of extracellular vesicle is determined using a Nanosight nanoparticle analyzer. The exosomes are also collected and subjected to western blot analysis of the EVs marker and PD-L1 in FIG. 7d. The live cells are also labeled with an anti-PD-L1 antibody and subjected to flow cytometry analysis in FIG. 7e.

[4] = Rab27a-knockout 4T1 cells, 6J1 30 mg/kg, daily, oral gavage
[5] = Rab27a-knockout 4T1 cells, 6J1 30 mg/kg, daily, oral gavage, 30 mg/kg

SMILES: OCCOCCN(c1ccccc1)c1nc(N/N=C/c2cccc(I)c2)nc(N2CCOCC2)n1 [Compound 6J1]
- activated tumor-infiltrating CD8+ T cell population and expression of IFN-γ vs other groups [1, 4]: significantly increased
- tumor growth and tumor burden vs other groups [1, 4]: significantly smaller
- cleaved caspase3 (CCA3) apoptotic signals in tumors vs other groups [1, 5]: Stronger clustered apoptotic signals
- infiltrated CD8+ T cells in tumor sections (immunostaining) vs other groups [1, 5]: More infiltrated CD8+ T cells are detected; also recorded: more infiltrated CD8^+ T cells are detected
- overall survival of mice bearing orthotopic 4T1 tumors vs other groups ([1]; combination of Rab27a knockout and 6J1 treatment): substantially prolongs the overall survival
- secretion of various chemokines from Raw246.7 cells (Raw246.7 cells): markedly induces the secretion of various chemokines
- cell death ([2]; 0.01-100 μM): induces cell death in a concentration-dependent manner
- cell death at effective concentrations ([2]; ≤1 μM): hardly induces any cell death
- EGFR degradation (EGFR): blocks the EGFR degradation
- oral bioavailability [3]: good oral bioavailability
- 6J1-induced EVs secretion (HeLa cells; ATG4B-, ATG7-, Beclin1- or VPS34-knockout HeLa cells): fails to abolish
- 6J1-induced EVs secretion (HeLa cells; ATG5- or LC3B-knockout HeLa cells): Neither ATG5 nor LC3B knockout impairs
- exosome secretion (extracellular vesicle concentration) (HeLa cells; HeLa cells): dramatically induces exosome secretion
